Measured values as given in US6919327B2, “Texaphyrin coordination compounds and uses thereof” (Pharmacyclics, Inc., priority 2000, dated 2005).

System: HepG2 cells
Assay: GdTex / LuTex cell association study in HepG2 cells
Assay type: cell-based
Details: 50 μM, 4 hours
Protocol: The absorption of GdTex and LuTex, using different sources of the respective texaphyrin, in HepG2 cells was determined, by comparing absorption for GdTex and LuTex in the cell line in medium alone, in medium containing ascorbic acid, and using GdTex and LuTex that had been premixed with ascorbate for a period of time before exposure to the cell line.
The HepG2 tumor cell line, a hepatocellular carcinoma, was obtained from the American Type Culture Collection (ATCC), Manassas, Va. (Catalog # HB-8065). The HepG2 cells were maintained in Eagle's Minimal Essential medium with Earl's BSS and 2 mM L-glutamine (EMEM) that is modified by ATCC to contain 1.0 mM sodium pyruvate, 0.1 mM nonessential amino acids, and 1.5 g/L sodium bicarbonate (ATCC, Cat. # 30-2003) and supplemented with 10% fetal bovine serum (FBS) FBS (Hyclone, Logan, Utah, Lot # AHF8559) and 100U penicillin/100 ug/ml streptomycin (Sigma, St. Louis, Mo.). Cells are fed 1 to 2 times weekly and passed at 3,000,000 cells per 75 cm tissue culture flask (Costar). Cells are passed using 0.25% trypsin, 0.02% EDTA solution (50/50 PBS/trypsin (Sigma)). Cells used were at the 96th passage at the time of use.
HepG2 Cells were plated at a density of 500,000 cells per dish in 100 mm tissue culture dishes containing 10 mL of RPMI media (Gibco, Rockville, Md.) supplemented with 10% fetal bovine serum (Lot# AJC9908), and 100 U/mL penicillin/100 ug/mL streptomycin (Lot # 50K2308, Sigma, St. Louis, Mo.). Cells were plated out 1 to 2 days prior to treating with motexafin gadolinium.
The day prior to treating the dishes with GdTex (9-19-00), an “aged” solution was prepared containing 50 μM GdTex, 100 μM ascorbate, and Catalase (at a concentration 1:1000 of the stock solution concentration provided by the vendor). This solution was incubated at 37° C. 5% CO2 for approximately 24 hours prior to addition to the appropriate test dishes.
On the day of treatment, test solutions were prepared as shown in the Table I below in pre-incubated medium. […]

[1] = freshly prepared solutions made in the presence of ascorbate (100 μM)

Row | SMILES | association with HepG2 cells [1] | association with HepG2 cells (in the absence of ascorbate)
1 | CC(=O)[O-].CC(=O)[O-].CCc1c(CC)c2cc3nc(cnc4cc(OCCOCCOCCOC)c(OCCOCCOCCOC)cc4ncc4nc(cc1[n-]2)C(CCCO)=C4C)C(C)=C3CCCO.O.[Gd+3] [GdTex, motexafin gadolinium] | comparable levels of association | smaller than corresponding LuTex cell association
2 | CC(=O)[O-].CC(=O)[O-].CCc1c(CC)c2cc3nc(cnc4cc(OCCOCCOCCOC)c(OCCOCCOCCOC)cc4ncc4nc(cc1[n-]2)C(CCCO)=C4C)C(C)=C3CCCO.O.[Lu+3] [LuTex, motexafin lutetium] | comparable levels of association | 
